Legend:
Details in all cases: 72 h
Caco-2 [1] = test: cell viability relative to DMSO; higher = less toxic
Calu-3 [2] = test: as above
HepG2 [3] = test: as above
U2OS [4] = test: as above
Vero E6 [5] = test: as above
Caco-2 [6] = test: relative viability EC50 (midpoint between 100% and the lowest measured viability); higher = less toxic
Calu-3 [7] = test: as above
HepG2 [8] = test: as above
U2OS [9] = test: as above
Vero E6 [10] = test: as above
Caco-2 [11] = test: drug sensitivity score (DSS) for viability; higher = more toxic; extreme values may be limits of the assay
Calu-3 [12] = test: as above
HepG2 [13] = test: as above
U2OS [14] = test: as above
Vero E6 [15] = test: as above

Row | Compound | cell viability (Caco-2 [1]; 1 nM) | cell viability (Caco-2 [1]; 10 nM) | cell viability (Caco-2 [1]; 100 nM) | cell viability (Caco-2 [1]; 1000 nM) | cell viability (Caco-2 [1]; 10000 nM) | cell viability (Calu-3 [2]; 1 nM) | cell viability (Calu-3 [2]; 10 nM) | cell viability (Calu-3 [2]; 100 nM) | cell viability (Calu-3 [2]; 1000 nM) | cell viability (Calu-3 [2]; 10000 nM) | cell viability (HepG2 [3]; 1 nM) | cell viability (HepG2 [3]; 10 nM) | cell viability (HepG2 [3]; 100 nM) | cell viability (HepG2 [3]; 1000 nM) | cell viability (HepG2 [3]; 10000 nM) | cell viability (U2OS [4]; 1 nM) | cell viability (U2OS [4]; 10 nM) | cell viability (U2OS [4]; 100 nM) | cell viability (U2OS [4]; 1000 nM) | cell viability (U2OS [4]; 10000 nM) | cell viability (Vero E6 [5]; 1 nM) | cell viability (Vero E6 [5]; 10 nM) | cell viability (Vero E6 [5]; 100 nM) | cell viability (Vero E6 [5]; 1000 nM) | cell viability (Vero E6 [5]; 10000 nM) | relative viability EC50 (Caco-2 [6]) | relative viability EC50 (Calu-3 [7]) | relative viability EC50 (HepG2 [8]) | relative viability EC50 (U2OS [9]) | relative viability EC50 (Vero E6 [10]) | drug sensitivity score (Caco-2 [11]) | drug sensitivity score (Calu-3 [12]) | drug sensitivity score (HepG2 [13]) | drug sensitivity score (U2OS [14]) | drug sensitivity score (Vero E6 [15])
1 | N[C@]1(C(=O)O)CC[C@@H](C(=O)O)C1 [cis-ACPD] | 102% | 94.7% | 101% | 104% | 94.5% | 95.3% | 101% | 108% | 107% | 101% | 105% | 111% | 99.5% | 96.1% | 103% | 98.7% | 94.1% | 98.1% | 101% | 97.9% | 103% | 99.1% | 99.4% | 98.1% | 102% | > 10 µM | > 10 µM | > 10 µM | > 10 µM | > 10 µM | 0 | 0 | 0 | 0 | 0
2 | COc1cnc(-c2ccc(Cn3c(CC(C)(C)C(=O)O)c(SC(C)(C)C)c4cc(OC[C@@H]5Cc6ccccc6N5C(C)=O)ccc43)cc2)nc1 [AM679] | 102% | 94% | 99% | 97% | 92.4% | 101% | 95.4% | 101% | 109% | 107% | 103% | 104% | 101% | 102% | 93.4% | 102% | 99.8% | 99.7% | 100% | 98.1% | 114% | 105% | 106% | 99.9% | 128% | > 10 µM | > 10 µM | > 10 µM | > 10 µM | > 10 µM | 0 | 0 | 0 | 0 | 0
3 | Nc1ncnc2c1ncn2C1CCCO1 (stereo not given) | 104% | 107% | 99.7% | 90.2% | 91.7% | 106% | 102% | 94.1% | 102% | 102% | 98.7% | 94.8% | 103% | 93.9% | 103% | 97.4% | 98.9% | 94.8% | 99.4% | 98.9% | 95.6% | 102% | 101% | 98.8% | 100% | > 10 µM | > 10 µM | > 10 µM | > 10 µM | > 10 µM | 0 | 0 | 0 | 0 | 0
4 | CC(C)[N+](C)(CCOC(=O)C1c2ccccc2Oc2ccccc21)C(C)C [propantheline] | 86.1% | 95.3% | 105% | 91.7% | 105% | 93.8% | 101% | 108% | 108% | 109% | 107% | 99% | 103% | 110% | 93.6% | 96.9% | 95.6% | 102% | 96.9% | 102% | 108% | 108% | 98.8% | 104% | 101% | > 10 µM | > 10 µM | > 10 µM | > 10 µM | > 10 µM | 0 | 0 | 0 | 0 | 0
5 | Cc1ncc(CO)c(CO)c1O [pyridoxine] | 96.4% | 80.3% | 94.3% | 105% | 88% | 92.2% | 97.2% | 97.1% | 98.5% | 98.6% | 98.5% | 105% | 91% | 96.2% | 107% | 96.7% | 94.2% | 98.1% | 94.6% | 96.8% | 102% | 105% | 97.8% | 108% | 106% | > 10 µM | > 10 µM | > 10 µM | > 10 µM | > 10 µM | 0 | 0 | 0 | 0 | 0
6 | CC[C@]12C=CCN3CC[C@@]4(c5cc([C@@]6(C(=O)OC)C[C@@H]7C[C@@H](C(C)(F)F)CN(Cc8c6[nH]c6ccccc86)C7)c(OC)cc5N(C)[C@H]4[C@@](O)(C(=O)OC)[C@@H]1OC(C)=O)[C@@H]32 [Vinflunine Ditartrate] | 88.1% | 104% | 77.4% | 55.2% | 41.2% | 108% | 101% | 90.2% | 69.3% | 45.9% | 107% | 95.1% | 61.2% | 32.8% | 34.3% | 101% | 98.1% | 87.5% | 48.6% | 23.1% | 102% | 99.5% | 103% | 64.1% | 24.3% | 0.213 µM | 0.655 µM | 0.0789 µM | 0.493 µM | 1.04 µM | 10.9 | 6.8 | 17 | 11.3 | 8.8
7 | OCCN1CCN(CCCN2c3ccccc3C=Cc3ccccc32)CC1 [opipramol] | 89.8% | 102% | 88.6% | 100% | 76.6% | 100% | 93.3% | 99.7% | 100% | 98% | 107% | 104% | 98% | 91.4% | 92.1% | 97.6% | 95.6% | 101% | 103% | 97% | 107% | 99.8% | 104% | 98.5% | 83.9% | > 10 µM | > 10 µM | > 10 µM | > 10 µM | > 10 µM | 0.8 | 0 | 0 | 0 | 0.5
8 | CCN(CC)C(=O)Nc1ccc(OCC(O)CNC(C)(C)C)c(C(C)=O)c1 (stereo not given) [celiprolol] | 95.4% | 106% | 112% | 103% | 106% | 104% | 104% | 106% | 98.7% | 96.4% | 99.6% | 98.9% | 106% | 88.1% | 103% | 101% | 100% | 96.5% | 95.9% | 95.3% | 103% | 104% | 102% | 106% | 97.3% | > 10 µM | > 10 µM | > 10 µM | > 10 µM | > 10 µM | 0 | 0 | 0 | 0 | 0
9 | COc1cc(OC)c(NC(=O)Nc2cc(C)on2)cc1Cl | 98.9% | 102% | 90.3% | 96.3% | 90% | 86.7% | 98.4% | 97.2% | 95.1% | 90% | 102% | 108% | 97% | 110% | 103% | 97% | 99.9% | 97.2% | 98.4% | 97.4% | 99% | 104% | 102% | 104% | 96.8% | > 10 µM | > 10 µM | > 10 µM | > 10 µM | > 10 µM | 0 | 0 | 0 | 0 | 0
10 | COc1cc(Cc2cnc(N)nc2N)cc(OC)c1OC [trimethoprim] | 114% | 113% | 119% | 103% | 90.1% | 103% | 89.6% | 107% | 110% | 113% | 82.4% | 102% | 106% | 89.8% | 97.6% | 92.3% | 98.4% | 96% | 99.6% | 105% | 99.8% | 91.4% | 100% | 94.4% | 96.4% | > 10 µM | > 10 µM | > 10 µM | > 10 µM | > 10 µM | 0 | 0 | 0 | 0 | 0
11 | Nc1c2c(nc3c1CCC3)CCCC2 [ipidacrine] | 84.5% | 96.4% | 96.3% | 91.8% | 106% | 99.2% | 99.9% | 88.6% | 90.9% | 100% | 101% | 99.9% | 104% | 94.6% | 109% | 96.8% | 93.4% | 103% | 94.8% | 99.4% | 96.5% | 96.4% | 95.8% | 94.7% | 108% | > 10 µM | > 10 µM | > 10 µM | > 10 µM | > 10 µM | 0 | 0 | 0 | 0 | 0
12 | O=C(NC(Cc1cc(=O)[nH]c2ccccc12)C(=O)O)c1ccc(Cl)cc1 (stereo not given) [rebamipide] | 92.6% | 97.7% | 89.9% | 100% | 99.3% | 99.2% | 97.5% | 92.7% | 99.7% | 106% | 107% | 89.4% | 108% | 105% | 104% | 90.5% | 96.7% | 93.9% | 103% | 110% | 101% | 96% | 97.6% | 96.8% | 110% | > 10 µM | > 10 µM | > 10 µM | > 10 µM | > 10 µM | 0 | 0 | 0 | 0 | 0
13 | Cc1cc2c(C(C)C)c(O)c(O)c(C=O)c2c(O)c1-c1c(C)cc2c(C(C)C)c(O)c(O)c(C=O)c2c1O [gossypol] | 101% | 104% | 107% | 90.9% | 0.8% | 100% | 100% | 103% | 103% | 36.9% | 102% | 96.3% | 95.3% | 96.1% | 9.6% | 96.8% | 101% | 98.6% | 95.9% | 11.9% | 100% | 98.1% | 97.6% | 98.6% | 13.1% | 2.41 µM | 3.4 µM | 2.84 µM | 2.81 µM | 3.05 µM | 7 | 3.2 | 5.6 | 5.5 | 5
14 | COCC1=C(C(=O)O)N2C(=O)[C@@H](NC(=O)/C(=N\OC)c3csc(N)n3)[C@H]2SC1 [cefpodoxime] | 106% | 112% | 97.5% | 91.4% | 105% | 98% | 105% | 96.8% | 99.4% | 103% | 106% | 103% | 108% | 101% | 96.1% | 104% | 99.6% | 105% | 102% | 101% | 99.7% | 98.1% | 99.2% | 97.5% | 99.4% | > 10 µM | > 10 µM | > 10 µM | > 10 µM | > 10 µM | 0 | 0 | 0 | 0 | 0
15 | CC(C)(C)NCC(O)c1cc(Br)no1 (stereo not given) [broxaterol] | 103% | 99.2% | 93% | 96.2% | 104% | 111% | 95.4% | 108% | 111% | 95.9% | 105% | 96.9% | 92.5% | 94.8% | 97.2% | 104% | 99.1% | 97.6% | 102% | 99.4% | 105% | 101% | 103% | 98.8% | 99.4% | > 10 µM | > 10 µM | > 10 µM | > 10 µM | > 10 µM | 0 | 0 | 0 | 0 | 0

From the supplement of paper PMC13380429
